Experimental data published in patent US7632814B2, “HYD1 peptides as anti-cancer agents” (University of South Florida, priority 2006, dated 2009).
Entries after “also recorded” stand apart in the source; their conditions may differ. Where no end group is shown, it is not given here. [ ]: non-standard residue; d: D form.

Assays:
caspase 8 = test: Caspase 8 activity in H929 cells (fluorescent substrate); assay type: cell-based; settings: 6 or 24 hrs
Description: Cells were treated for 6 hours (FIG. 22A) or 24 hours (FIG. 22B) and caspase 8 activity was measured using a fluorescent substrate. Shown is a representative experiment performed in triplicates. The experiment was repeated twice and similar results were obtained.
Detection of Apoptosis. A flow cytometric assay measuring Annexin V/PI staining was used to measure apoptotic cells following 24 hours of peptide exposure as previously described (Damiano J S et al. Blood, 1999; 93:1658-1667). The assay was performed in triplicate and 3 independent experiments were performed. Caspase 3 and 8 activity was measured at 6 and 24 hrs post peptide treatment per manufactures' instructions (BD Biosciences, San Jose, Calif.). The caspase assays were performed in triplicate and repeated twice.

H929 cells = test: Electron microscopy of double membrane vesicles; assay type: cell-based; settings: 100 μg/ml, 4 hours
Description: H929 cells were treated with either 100 µg/ml HYD1 (FIG. 24A) or HYD1S (FIG. 24B) for four hours and processed for electron microscopy as described in materials and methods.
Electron Microscopy. H929 cells were treated for four hours with either 100 μg/ml HYD1 or HYD1S. After peptide treatment, the samples were fixed overnight in 2.5% glutaraldehyde in 0.1M phosphate buffer, pH 7.2 overnight at four degrees. Following fixation, the cells were rinsed 2 times for 10 minutes each in 0.1M phosphate buffer, pH 7.2, at 4° C. The cells were loosely pelleted in microcentrifuge tubes at 500×G for 3 minutes. The buffer was removed from the cells and replaced with 1% osmium tetroxide in the above buffer at 4° C. The cells were resuspended and post-fixed for 1 hour, then loosely pelleted and rinsed in the above buffer. This step was repeated for a total of 3 rinses of 5 minutes each, with the cells being resuspended after each buffer change. Cells were dehydrated through a graded series of acetone, 30%, 50%, 70%, and 95% acetone in water, 5 minutes per change with loose pelleting at 750×G for 5 minutes, then resuspension for each step. The cells were then dehydrated through three changes of 100% acetone, 10 minutes per change, with a 5 minute pelleting step at 1000×G, followed by resuspension in each step. […]

8226 MM = test: SCID-Hu in vivo model, tumor burden by circulating lambda levels; design: species or system SCID mice
Description: 8226 cells (50,000 cells per mice) were engrafted into implanted human bone for 28 days. Following tumor engraftment, mice were treated with either 2 mg/Kg HYD1 or HYD1S (I.P. daily). Appropriate mice were treated with 1.5 mg/kg melphalan (mel) on day 29 and day […] (I.P. injections). Tumor burden was measured by lambda levels on day 28 and day 35 (n=3 mice per group).
Tumor burden was measured by circulating lambda levels. On day 28 (before drug treatment) measurements were recorded for each individual mouse and subsequent values obtained weekly are represented as a ratio of day 28 (day X/day 28). N=4 mice per group. HYD1 was administered I.P. at 2 mg/kg daily for 14 days (starting day 28). Melphalan was administered I.P. at 1.5 mg/kg on day 29 and 32.
SCID-Hu model. […] At 28 days, baseline tumor burden was quantified in the sera using either a lambda (8226) or kappa (H929) ELISA kit per manufacture instructions (Bethyl, Montgomery, Tex.) and mice were randomized into treatment groups. […] Tumor burden was assessed weekly by measuring kappa or lambda levels in the sera.
The SCID-Hu model consists of implanting human fetal bone into the mammary mouse fat pad of SCID mice. […] Human paraprotein can be measured in the mouse sera and levels represent a good marker for evaluating tumor burden and response to chemotherapy. […]

[1] = system: DUH-H prostate carcinoma cells; settings: DeRoock et al. 2001; cited from earlier work

kikmviswkg ([dK][dI][dK][dM][dV][dI][dS][dW][dK]G) [HYD1]
caspase 8 activity (caspase 8): no caspase 8 activity was detected | formation of double membranes / vesicles (EM) (H929 cells): increased formation of double membranes | tumor burden (lambda levels), combination with melphalan (8226 MM; 8226, 2 mg/kg HYD1 I.P. daily with 1.5 mg/kg melphalan I.P.): greatest reduction in tumor burden; also recorded: enhances melphalan induced cell death | tumor burden (circulating lambda levels, day X/day 28), single agent (8226 MM; 8226, 2 mg/kg I.P. daily for 14 days starting day 28): antitumor activity was detected; also recorded: reduces 8226 MM growth in vivo | inhibition of adhesion to FN, laminin 1, laminin 5 and collagen V [1]: inhibit adhesion
